Laboratory results as given in patent US6933126B2, “Membrane transportable fluorescent substrates” (Applera Corporation, priority 2001, dated 2005).

Columns and labels:
[1] = molecular target: T1, β-galactosidase in Psi-2-BAG-α cells (Escherichia coli, UniProt P00722); assay: FDG detection of β-galactosidase in Psi-2-BAG-α cells, passive load vs "SUPERFECT" complex; type: cell-based; conditions: for Fluorescence (w "SUPERFECT") / Fluorescence (w/o "SUPERFECT"): Cells + Supernatant, 2 hrs, ex 485/20, em 530/25; for Fluorescence (w "SUPERFECT"): 0.6 mM FDG with 25 μl "SUPERFECT" carrier; for Fluorescence (w/o "SUPERFECT"): 0.6 mM FDG, passive load
T1 construct: expressed in transfected cells; host or cells: Psi-2-BAG-α cells (own knowledge: mouse NIH-3T3-derived psi-2 packaging line stably carrying the BAG lacZ retroviral vector)
T1 sequence (P00722 whole entry): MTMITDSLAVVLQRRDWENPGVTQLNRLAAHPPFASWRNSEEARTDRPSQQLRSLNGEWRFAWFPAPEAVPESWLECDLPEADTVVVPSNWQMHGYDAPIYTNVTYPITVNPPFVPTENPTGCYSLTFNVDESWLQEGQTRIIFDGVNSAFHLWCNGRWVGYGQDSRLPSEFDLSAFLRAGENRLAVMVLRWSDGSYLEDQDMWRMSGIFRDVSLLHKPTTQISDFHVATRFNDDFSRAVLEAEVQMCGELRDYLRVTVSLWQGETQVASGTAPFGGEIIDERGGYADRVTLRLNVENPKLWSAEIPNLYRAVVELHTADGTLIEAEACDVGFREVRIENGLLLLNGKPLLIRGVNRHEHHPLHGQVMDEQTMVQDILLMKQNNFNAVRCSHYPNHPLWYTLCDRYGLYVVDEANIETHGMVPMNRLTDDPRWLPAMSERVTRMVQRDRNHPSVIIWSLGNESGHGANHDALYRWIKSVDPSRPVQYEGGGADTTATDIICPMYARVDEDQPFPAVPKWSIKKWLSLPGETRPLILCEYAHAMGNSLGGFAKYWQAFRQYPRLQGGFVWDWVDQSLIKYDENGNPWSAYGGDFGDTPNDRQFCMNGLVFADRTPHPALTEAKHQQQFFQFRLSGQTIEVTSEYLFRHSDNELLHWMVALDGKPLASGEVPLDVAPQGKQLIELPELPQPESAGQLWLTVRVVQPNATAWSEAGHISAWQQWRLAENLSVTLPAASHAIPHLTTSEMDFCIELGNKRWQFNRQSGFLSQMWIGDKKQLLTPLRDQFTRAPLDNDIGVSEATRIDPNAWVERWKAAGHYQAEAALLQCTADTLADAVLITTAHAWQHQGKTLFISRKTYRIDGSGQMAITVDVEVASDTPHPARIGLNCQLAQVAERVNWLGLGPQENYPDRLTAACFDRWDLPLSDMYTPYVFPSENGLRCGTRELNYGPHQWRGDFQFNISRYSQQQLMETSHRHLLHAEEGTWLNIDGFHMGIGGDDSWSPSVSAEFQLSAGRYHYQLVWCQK
Method: A first experiment was conducted to determine the effect of complex formation on FDG detection of β-galactosidase in Psi-2-BAG-α cells. First, FDG detection was measured using FDG without a transporter or carrier complexed thereto (passive load). This measured value was compared to a measurement using a complex of FDG and an activated polyamino dendrimer (e.g., “SUPERFECT”, which is a trademark of Qiagen N.V.).
For the passive load test, two vials of cells were prepared. First, two vials each having 330,000 psi-2-BAG-α cells suspended in 250 μl 0.6 mM FDG in Opti-MEM were prepared. A first vial of cells was incubated at 4° C. for 2 hrs and the second vial of cells was incubated at 37° C. for 2 hrs.
For the polyamino dendrimer complex, two vials of cells were prepared in the following manner. First, two vials each having 330,000 psi-2-BAG-α cells suspended in 250 μl 0.6 mM FDG in Opti-MEM containing 25 μl “SUPERFECT” as a polycationic carrier were prepared. The first vial of cells was incubated at 4° C. for 2 hrs and the second vial of cells was incubated at 37° C. for 2 hrs.
Following incubation, 20 μl triplicate samples of the above four cell suspensions (passive/4° C., passive/37° C., “SUPERFECT”/4° C., “SUPERFECT”/37° C.) were added to a 96-well plate.
(§1) The 96-well plate was read on a Cytofluor 4000 with excitation filter 485/20 and emission filter 530/25. The data was analyzed as triplicate averages.

[2] = tested on: β-galactosidase complementation in FRAP/FKBP12 (B14) cells; assay: FDG detection of rapamycin-induced β-galactosidase complementation in FRAP/FKBP12 (B14) cells; type: cell-based; conditions: for Fluorescence (w "SUPERFECT") / Fluorescence (w/o "SUPERFECT"): 90 min at 37° C.; for Fluorescence (w "SUPERFECT"): 0.6 mM FDG with "SUPERFECT" carrier; for Fluorescence (w/o "SUPERFECT"): 0.6 mM FDG, passive load; for Fluorescence signal to noise ratio (S/N): Induced cells
Method: A second experiment was conducted to determine the effect of fluorescent substrate complex formation on FDG detection of rapamycin-induced β-galactosidase complementation in FRAP/FKBPI2 (B14) cells.
A 96-well plate was plated with FRAP/FKBP12 cells at 10,000 cells per well. Half of the cells were incubated overnight with rapamycin to induce β-galactosidase complementation. The next day, the cells were washed with Opti-MEM. Half of the cells were incubated for 90 min at 37° C. with 254 μl 0.6 mM FDG (fluorescein-di-β-D-galactoside) in Opti-MEM. The remaining cells were incubated 90 min at 37° C. with 0.6 mM FDG, containing “SUPERFECT” as a carrier (14 μl “SUPERFECT” in 240 μl 0.6 mM FDG in Opti-MEM).
as §1

[3] = Induced cells (rapamycin overnight)

For O=C1OC2(c3ccc(O[C@@H]4O[C@H](CO)[C@H](O)[C@H](O)[C@H]4O)cc3Oc3cc(O[C@@H]4O[C@H](CO)[C@H](O)[C@H](O)[C@H]4O)ccc32)c2ccccc21 [FDG, fluorescein di-β-D-galactopyranoside], the “Fluorescence (w "SUPERFECT")” value ([1]; 4° C.) was 8,343, the “Fluorescence (w/o "SUPERFECT")” value ([1]; 4° C.) was 807 and the “Fluorescence (w "SUPERFECT")” value ([1]; 37° C.) was 33,943. For the same compound, the “Fluorescence (w/o "SUPERFECT")” value ([1]; 37° C.) was 2492, the “Increase of fluorescence signal with Superfect-assisted load” value ([1]; Superfect-assisted load of FDG vs passive load) was ≥ 10 fold and the “Fluorescence (w "SUPERFECT")” value [2, 3] was 12,721. The “Fluorescence (w/o "SUPERFECT")” value [2, 3] was 594, the “Fluorescence signal to noise ratio (S/N)” value ([2]; "SUPERFECT" assisted load of FDG) was “approximately 37” and the “Fluorescence signal to noise ratio (S/N)” value ([2]; uncomplexed or passive load of FDG (w/o "SUPERFECT")) was “about 2”. The “Fluorescence (w "SUPERFECT")” value ([2]; Uninduced cells) was 338 and the “Fluorescence (w/o "SUPERFECT")” value ([2]; Uninduced cells) was 253.
